In EP0081756A1, “New compounds with antiinflammatory and antitussive activity, process for their preparation and relative pharmaceutical compositions” (MEDEA RESEARCH S.r.l., priority 1981, dated 1983):
Marks after values point to notes of the source that are not given here.

How the values were obtained:
[1] = tested on: whrithing by phenylquinone; experiment: Analgesic activity, writhing by phenylquinone (method of Siegmund); assay type: in vivo; settings: mice
carrageenin edema = experiment: Antiinflammatory activity, carrageenin edema test (method of Winter); assay type: in vivo; settings: rat; for % INHIBITION / EDEMA VOLUME Final value: 50 mg/kg oral 30 minutes before carrageenin, measured 3 hours after induction; for EDEMA VOLUME Basal value: 50 mg/kg oral
Description: The antiinflammatory activity of MR 549 has been assessed by the carrageenin edema test in the rat according to the method of Winter et al. (Proc. Soc. Exp. Biol. Med., 1962, III, 544).
The product under exam and indomethaoin at equiponderant doses have been administered by the oral route 30 minutes before of the subplantar carragee ning injection; pletismographic measures of the edemas have been performed 3 hours after they had been induced.

[2] = Acute toxicity after single administration, rat; settings: in vivo
Excerpt: (§1) The toxicity after single administrations of MR 549 has been studied in mice and rats by the oral and intraperitoneal routes.
(§2) The LD50 values have been calculated according to the method of Litchfield and Wilooxon (J. Pharm. Exp. Therap., 1949, 96, 99).

gastric mucosa [3] = settings: rat, in vivo, po
Description: (§3) Male rats of S-D strain, weighing 180-200 g and fasting for 48 hours with free access to water, have been used. The product under exam have been administered by intraperitoneal routes : twice (after 24 and 31 hours from the beginning of the fasting period) at the single dose of 100 mg/kg; or three times by oral route (9.24 and 31 hours after the beginning of the fasting period) at the single dose of 150 mg/kg.

[4] = Acute toxicity after single administration, mouse; assay type: in vivo; settings: in vivo, mouse, single administration
Excerpt: as §1, §2

mouse = experiment: Acute toxicity after single administration, mouse; assay type: in vivo; settings: mice and rats, oral and intraperitoneal routes
Excerpt: as §1, §2

motor activity = experiment: Spontaneous motor activity; assay type: in vivo; settings: Swiss mouse, 50 mg/kg i.p.
Description: The effect of MR 549 on the motor activity has been studied in the Swiss mouse, by placing two groups of animals in a box connected with a recorder detec ting spontaneous motility. On the basis of movemen- ts/minute recorded, MR 549 at the dose of 50 mg/kg i.p. has been administered to one group and the ac tivity has been recorded during the 2 hours following treatment; the second group, treated with the solvent alone, has been used as control group.

gastric mucosa [5] = experiment: Gastric tolerability (method of Pisanti and Volterra); settings: fasting rats, 12 animals
Description: as §3

[6] = 50 mg/kg os, 30 minutes before phenylquinone injection

For `CC(=O)Oc1ccccc1C(=O)O` [ACETYL-SALICYLIC ACID, acetylsalicylic acid, reference compound], the “% INHIBITION IN COMPARISON WITH CONTROLS” value ([1]; 100 mg/kg os) was 79.6%, the “N° CONTORSIONS X̄ ± e.s.” value ([1]; 100 mg/kg os) was 3.9 ± 1.93 and the “N° WHRITHING ANIMALS/TOTAL N&” value ([1]; 100 mg/kg os) was 12/20.
In the case of `COc1ccc2c(c1)c(CC(=O)O)c(C)n2C(=O)c1ccc(Cl)cc1` [INDO-METHACINE, indomethacin, reference compound], the “% INHIBITION” value (carrageenin edema) is reported as 53.2%, the “EDEMA VOLUME Final value” (carrageenin edema) is reported as 29.6 and the “EDEMA VOLUME Basal value” (carrageenin edema) is reported as 22.5.
In the case of `Cc1cccnc1NC(=O)C1(c2ccccc2)CCCC1` [MR 549, 2-[(1-phenyl)cyclopentyl-carbonyl]-amino-3-methylpyridine], the LD50 ([2]; ip) is reported as 600 mg/kg, the LD50 ([2]; po, os) is reported as 1100 mg/kg and the “% INHIBITION IN COMPARISON WITH CONTROLS” value [1, 6] is reported as 63.9%. For the same compound, the “N° CONTORSIONS X̄ ± e.s.” value [1, 6] was 6.9 ± 2.24, the “N° WHRITHING ANIMALS/TOTAL N&” value [1, 6] was 14/20 and the “% INHIBITION” value (carrageenin edema) was 38.1%. The “EDEMA VOLUME Final value” (carrageenin edema) was 31.8, the “EDEMA VOLUME Basal value” (carrageenin edema) was 22.6 and the “gastrolesive action (verbal summary)” value (gastric mucosa [3]) was “clearly lower than phenylbutazone”. The LD50 ([4]; ip) was 300 mg/kg, the LD50 ([4]; po, os) was 550 mg/kg and the “acute toxicity (verbal summary)” value (mouse) was “very low acute toxicity”. For the same compound, the “N° recorded movements/min.” value (motor activity; 15') was 42 movements/min, the “N° recorded movements/min.” value (motor activity; 30') was 52 movements/min and the “N° recorded movements/min.” value (motor activity; 60') was 39 movements/min. For the same compound, the “N° recorded movements/min.” value (motor activity; 90') was 52 movements/min and the “N° recorded movements/min.” value (motor activity; Time: 0) was 45 movements/min.
With `CCCCC1C(=O)N(c2ccccc2)N(c2ccccc2)C1=O` [Phenylbu-tazone, phenylbutazone] the “% ANIMALS WITH ULCERS” value (gastric mucosa [5]; 100 mg X 2 i.p.) was 83.30%, the “N° ANIMALS WITH ULCERS” value (gastric mucosa [5]; 100 mg X 2 i.p.) was 10* and the “animals died during treatment” value (gastric mucosa [5]; 100 mg X 2 i.p.) was “* an animal died during treatment”. For the same compound, the “% ANIMALS WITH ULCERS” value (gastric mucosa [5]; 150 mg X 3 os) was 91.67%, the “N° ANIMALS WITH ULCERS” value (gastric mucosa [5]; 150 mg X 3 os) was 11** and the “animals died during treatment” value (gastric mucosa [5]; 150 mg X 3 os) was “** two animals died during treatment”.
